Patent USRE30149E, “Preparation of antifibrinolytically active isomer of 4-aminomethylcyclohexane carboxylic acid” (AB Kabi, priority 1963, dated 1979)

Assays:
[1] = tested on: streptokinase-induced fibrinolysis (fibrinogen, plasminogen, thrombin system); test: in vitro antifibrinolytic activity, 50% inhibition of streptokinase-induced fibrinolysis; format: biochemical; conditions: for Actual amount of compound for 50% inhibition of 6 units of streptokinase: fibrinogen, plasminogen, thrombin plus 6 units of streptokinase
Method: Antifibrinolytic activity quantitative assay was conducted by a technique utilizing the procedures described by Christensen, L. E. in J. clin. Invest., volume 28 (1949), page 163, and Wasserman, A. E., et al. in J. Lab. clin. Med., volume 4 (1953), page 812. […] The system consists of fibrinogen, plasminogen, and thrombin, to which is added 6 units of streptokinase which produces a lytic effect. The 50% inhibition studied corresponds to a lytic activity of 3 units of streptokinase. […] The time necessary for the formed plasmin to dissolve a standard fibrin coagulum is determined.
The following table furnishes the data on the in vitro antifibrinolytic activity of the several compounds considered in this specification, expressed as 50% inhibition of 6 units of streptokinase: […]

[2] = animal organism, i.e. the subject being treated; cited from earlier work
[3] = tested on: fibrinolysis; conditions: cited from earlier work

SMILES	Relative activity ([1]; in vitro, 50% inhibition of 6 units of streptokinase, relative to EACA = 1)	Actual amount of compound for 50% inhibition of 6 units of streptokinase ([1]; in vitro)	excretion [2]	antifibrinolytic activity in clinical use [3]	antifibrinolytic activity ([1]; evaluation of the two separate AMCHA isomers)
NCCCCCC(=O)O [EACA, epsilon-aminocaproicacid]	1	4 γ	so rapidly excreted	acceptable degree of antifibrinolytic activity	
NCC1CCC(C(=O)O)CC1 (single isomer, unassigned; isomer 4) [Isomeric AMCHA, comprising 10% active isomer, 4-aminomethyl-cyclohexane carboxylic acid]		2 γ			
NCC1CCC(C(=O)O)CC1 (single isomer, unassigned; isomer 4) [Active-AMCHA isomer, 4-aminomethyl-cyclohexane carboxylic acid]		0.2 γ			
NCC1CCC(C(=O)O)CC1 (single isomer, unassigned; isomer 4) [Inactive-AMCHA isomer, 4-aminomethyl-cyclohexane carboxylic acid]		30 γ			practically devoid of any antifibrinolytic activity
